{
  "source": "patent US9096583B2",
  "about": "“Substituted 1,2,5-oxadiazole compounds and their use as herbicides II” (BASF SE, priority 2011, dated 2015)",
  "key": {"ABUTH": {"tested_on": "ABUTH", "assay": "greenhouse post-emergence herbicidal test, ABUTH", "assay_type": "in vivo, Abutilon theophrasti", "conditions": "post-emergence method, application rate 1 kg/ha, scale from 0 to 100", "excerpt": "(§1) The seeds of the test plants were sown separately for each species. For the post-emergence treatment, the test plants were first grown to a height of 3 to 15 cm, depending on the plant habit, and only then treated with the active ingredients which had been suspended or emulsified in water. For this purpose, the test plants were either sown directly and grown in the same containers, or they were first grown separately as seedlings and transplanted into the test containers a few days prior to treatment. Depending on the species, the plants were kept at 10-25° C. or 20-35° C. The test period extended over 2 to 4 weeks. During this time, the plants were tended, and their response to the individual treatments was evaluated. Evaluation was carried out using a scale from 0 to 100. 100 means no emergence of the plants, or complete destruction of at least the aerial moieties, and 0 means no damage, or normal course of growth. A good herbicidal activity is given at values of at least 70 and a very good herbicidal activity is given at values of at least 85. [table]"}, "ALOMY": {"tested_on": "ALOMY", "assay": "greenhouse post-emergence herbicidal test, ALOMY", "assay_type": "in vivo, Alopecurus myosuroides", "conditions": "post-emergence method, application rate 0.25 kg/ha, scale from 0 to 100", "excerpt": "as §1"}},
  "data": [
    {"smiles": "Cc1nonc1NC(=O)c1ccc(Cl)c2ncccc12", "note": "[I′.A-113]", "values": [
      {"measurement": "herbicidal activity against ABUTH", "setting": "ABUTH", "result": "good herbicidal activity (A good herbicidal activity is given at values of at least 70)"}
    ]},
    {"smiles": "COc1nonc1NC(=O)c1ccc2c(c1Cl)S(=O)(=O)CCC2(C)C", "note": "[I″.A-8]", "values": [
      {"measurement": "herbicidal activity against ALOMY", "setting": "ALOMY", "result": "very good herbicidal activity (a very good herbicidal activity is given at values of at least 85)"}
    ]}
  ]
}
